Test results as given in PubChem BioAssay AID248 (DTP/NCI, 2004).
Toxic doses and inconclusive results are not listed. Cut-off read from the data, not from the text of the source: active = T/C of 150% or more; inactive = T/C below 125%.

Test system: L1210 leukemia ip in BDF1 mice, survival T/C
Assay: NCI In Vivo Anticancer Drug Screen. Data for tumor model L1210 Leukemia (intraperitoneal) in B6D2F1 (BDF1) mice
Settings: endpoint: mean survival time, higher = longer survival
Outline: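 Antitumor effect is assessed in tumor-bearing animals. Survival in the compound arm is compared with a vehicle-dosed control arm and expressed as their quotient.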

[1] = dose: 100.0 mg/kg/injection, schedule: Q01DX009 (ip), vehicle: Klucel (hydroxypropylcellulose) (HPC)
[2] = dose: 100.0 mg/kg/injection, schedule: Q04DX003 (ip), vehicle: Klucel (hydroxypropylcellulose) (HPC)
[3] = dose: 200.0 mg/kg/injection, schedule: Q04DX003 (ip), vehicle: Klucel (hydroxypropylcellulose) (HPC)
[4] = dose: 400.0 mg/kg/injection, schedule: Q04DX003 (ip), vehicle: Klucel (hydroxypropylcellulose) (HPC)
[5] = dose: 100.0 mg/kg/injection, schedule: Q04DX003 (ip), vehicle: saline with Tween-80
[6] = dose: 200.0 mg/kg/injection, schedule: Q04DX003 (ip), vehicle: saline with Tween-80
[7] = dose: 400.0 mg/kg/injection, schedule: Q04DX003 (ip), vehicle: saline with Tween-80
[8] = dose: 100.0 mg/kg/injection, schedule: Q01DX001 (ip), vehicle: saline
[9] = dose: 200.0 mg/kg/injection, schedule: Q01DX001 (ip), vehicle: saline
[10] = dose: 400.0 mg/kg/injection, schedule: Q01DX001 (ip), vehicle: saline
[11] = dose: 25.0 mg/kg/injection, schedule: Q04DX003 (ip), vehicle: Klucel (hydroxypropylcellulose) (HPC)
[12] = dose: 50.0 mg/kg/injection, schedule: Q04DX003 (ip), vehicle: Klucel (hydroxypropylcellulose) (HPC)

Measured: T/C

Cn1c(=O)c2ccccc2c2cc(Cl)ccc21
inactive: [1] 94 % of control | [2] 96 % of control | [3] 96 % of control | [4] 93 % of control

CCN1CCCC(Nc2nc(C(Cl)(Cl)Cl)nc3cc(Cl)ccc23)C1 (stereo not drawn)
inactive: dose: 100.0 mg/kg/injection, schedule: Q01DX009 (ip), vehicle: saline with Tween-80 104 % of control | [5] 87 % of control | [6] 89 % of control | [7] 88 % of control

Cc1c(C)c(C)c(Br)c(C)c1C
inactive: dose: 50.0 mg/kg/injection, schedule: Q01DX001 (ip), vehicle: saline 108 % of control | [8] 108 % of control | [9] 108 % of control | [10] 108 % of control

CC12CCC3c4ccc(OC(=O)Cc5ccc(N(CCCl)CCCl)cc5)cc4CCC3C1CCC2=O (stereo not drawn)
inactive: dose: 100.0 mg/kg/injection, schedule: Q01DX001 (sc), vehicle: steriod suspending solution 97 % of control | dose: 200.0 mg/kg/injection, schedule: Q01DX001 (sc), vehicle: steriod suspending solution 103 % of control | dose: 400.0 mg/kg/injection, schedule: Q01DX001 (sc), vehicle: steriod suspending solution 103 % of control

CC1CC(C)(C)N=C(CC(C)(O)c2ccccn2)O1 (stereo not drawn)
inactive: dose: 100.0 mg/kg/injection, schedule: Q01DX001 (ip), vehicle: saline sonified 97 % of control | dose: 200.0 mg/kg/injection, schedule: Q01DX001 (ip), vehicle: saline sonified 103 % of control | dose: 400.0 mg/kg/injection, schedule: Q01DX001 (ip), vehicle: saline sonified 100 % of control

CCC(CO)Nc1nc2cc(Cl)ccc2c2ccc(Cl)cc12 (stereo not drawn)
inactive: [2] 102 % of control | [3] 100 % of control | [4] 103 % of control

O=C(N/N=C/c1ccc2c(c1)CCC2)c1ccccc1
inactive: [5] 92 % of control | [6] 90 % of control | [7] 88 % of control

CC1=NS(=O)(=O)NC(C)(C)C1
inactive: dose: 12.5 mg/kg/injection, schedule: Q01DX009 (ip), vehicle: saline 93 % of control | dose: 25.0 mg/kg/injection, schedule: Q01DX009 (ip), vehicle: saline 93 % of control | dose: 50.0 mg/kg/injection, schedule: Q01DX001 (ip), vehicle: carboxymethylcellulose (CMC) 123 % of control | dose: 50.0 mg/kg/injection, schedule: Q01DX009 (ip), vehicle: saline 98 % of control | dose: 100.0 mg/kg/injection, schedule: Q01DX001 (ip), vehicle: carboxymethylcellulose (CMC) 96 % of control | [1] 87 % of control

CC(=O)NCC(C)OC(C)=O (stereo not drawn)
inactive: dose: 100.0 mg/kg/injection, schedule: Q01DX009 (ip), vehicle: saline 104 % of control | dose: 200.0 mg/kg/injection, schedule: Q01DX009 (ip), vehicle: saline 97 % of control | dose: 400.0 mg/kg/injection, schedule: Q01DX009 (ip), vehicle: saline 97 % of control

C[N+](C)(C)CC1(COC(=O)C(O)(c2ccccc2)c2ccccc2)CCC1
inactive: dose: 12.0 mg/kg/injection, schedule: Q01DX001 (ip), vehicle: Klucel (hydroxypropylcellulose) (HPC) 100 % of control | dose: 12.0 mg/kg/injection, schedule: Q04DX003 (ip), vehicle: Klucel (hydroxypropylcellulose) (HPC) 94 % of control | dose: 25.0 mg/kg/injection, schedule: Q01DX001 (ip), vehicle: Klucel (hydroxypropylcellulose) (HPC) 98 % of control | [11] 86 % of control | dose: 50.0 mg/kg/injection, schedule: Q01DX001 (ip), vehicle: Klucel (hydroxypropylcellulose) (HPC) 96 % of control | [12] 86 % of control

Cc1ccn(C)n1
inactive: dose: 100.0 mg/kg/injection, schedule: Q04DX002 (ip), vehicle: saline 103 % of control | dose: 200.0 mg/kg/injection, schedule: Q04DX002 (ip), vehicle: saline 97 % of control | dose: 400.0 mg/kg/injection, schedule: Q04DX002 (ip), vehicle: saline 93 % of control

CNC(=O)Oc1c([N+](=O)[O-])c([N+](=O)[O-])cc2ccccc12
inactive: dose: 75.0 mg/kg/injection, schedule: Q01DX001 (ip), vehicle: other 100 % of control

Clc1cc(C(Cl)(Cl)Cl)c(Cl)cc1C(Cl)(Cl)Cl
inactive: [11] 93 % of control | [12] 104 % of control | dose: 100.0 mg/kg/injection, schedule: Q01DX009 (ip), vehicle: saline sonified 120 % of control | [2] 97 % of control | dose: 200.0 mg/kg/injection, schedule: Q01DX009 (ip), vehicle: saline sonified 104 % of control | [3] 94 % of control | dose: 400.0 mg/kg/injection, schedule: Q01DX009 (ip), vehicle: saline sonified 94 % of control | [4] 94 % of control

OCC1OC(n2ccc3ccc(F)cc32)C(O)C1O (stereo not drawn)
inactive: dose: 60.0 mg/kg/injection, schedule: Q01DX001 (ip), vehicle: saline 97 % of control | dose: 120.0 mg/kg/injection, schedule: Q01DX001 (ip), vehicle: saline 108 % of control

CS(=O)(=O)N(CC(=O)O)Cc1ccc(Cl)cc1
inactive: dose: 100.0 mg/kg/injection, schedule: Q04DX003 (ip), vehicle: other 102 % of control | dose: 200.0 mg/kg/injection, schedule: Q04DX003 (ip), vehicle: other 105 % of control | dose: 400.0 mg/kg/injection, schedule: Q04DX003 (ip), vehicle: other 98 % of control

COC1CCCNC1CC(=O)Cn1cnc2cc3c(cc2c1=O)OCO3 (stereo not drawn)
inactive: dose: 18.75 mg/kg/injection, schedule: Q01DX009 (ip), vehicle: saline 92 % of control | dose: 37.5 mg/kg/injection, schedule: Q01DX009 (ip), vehicle: saline 111 % of control | dose: 37.5 mg/kg/injection, schedule: Q04DX003 (ip), vehicle: saline 98 % of control | dose: 75.0 mg/kg/injection, schedule: Q01DX001 (ip), vehicle: saline 101 % of control | dose: 75.0 mg/kg/injection, schedule: Q01DX009 (ip), vehicle: saline 93 % of control | dose: 75.0 mg/kg/injection, schedule: Q04DX003 (ip), vehicle: saline 104 % of control | dose: 150.0 mg/kg/injection, schedule: Q01DX001 (ip), vehicle: saline 107 % of control | dose: 150.0 mg/kg/injection, schedule: Q04DX003 (ip), vehicle: saline 100 % of control

O=C(NNC(=O)C1C2CCCCC21)C1C2CCCCC21 (stereo not drawn)
inactive: dose: 100.0 mg/kg/injection, schedule: Q04DX003 (ip), vehicle: acetone 105 % of control | dose: 200.0 mg/kg/injection, schedule: Q04DX003 (ip), vehicle: acetone 91 % of control | dose: 400.0 mg/kg/injection, schedule: Q04DX003 (ip), vehicle: acetone 97 % of control

O=C1c2ccccc2C(=O)N1C1C=CC=CC=C1
inactive: dose: 100.0 mg/kg/injection, schedule: Q01DX001 (ip), vehicle: Klucel (hydroxypropylcellulose) (HPC) 95 % of control | [2] 91 % of control | dose: 200.0 mg/kg/injection, schedule: Q01DX001 (ip), vehicle: Klucel (hydroxypropylcellulose) (HPC) 93 % of control | [3] 91 % of control | dose: 400.0 mg/kg/injection, schedule: Q01DX001 (ip), vehicle: Klucel (hydroxypropylcellulose) (HPC) 90 % of control | [4] 93 % of control

Nc1ccccc1CSc1nc2nc[nH]c(=O)c2[nH]1
inactive: [2] 95 % of control | [3] 95 % of control

Cc1ccc(NCCO)c2c(=O)c3ccccc3sc12
inactive: [8] 101 % of control | [9] 101 % of control | [10] 89 % of control
